From article PMC10203128, “Structures of human SGLT in the occluded state reveal conformational changes during sugar transport” (Nature Communications, 2023) come the findings set out here.

Assay [1] has as its target T1, hSGLT2 (Homo sapiens, UniProt P31639).
T1 construct: gene SLC5A2; hSGLT2GFP-MAP17nb, in lipid nanodisc; with MAP17
T1 sequence (P31639 1-672): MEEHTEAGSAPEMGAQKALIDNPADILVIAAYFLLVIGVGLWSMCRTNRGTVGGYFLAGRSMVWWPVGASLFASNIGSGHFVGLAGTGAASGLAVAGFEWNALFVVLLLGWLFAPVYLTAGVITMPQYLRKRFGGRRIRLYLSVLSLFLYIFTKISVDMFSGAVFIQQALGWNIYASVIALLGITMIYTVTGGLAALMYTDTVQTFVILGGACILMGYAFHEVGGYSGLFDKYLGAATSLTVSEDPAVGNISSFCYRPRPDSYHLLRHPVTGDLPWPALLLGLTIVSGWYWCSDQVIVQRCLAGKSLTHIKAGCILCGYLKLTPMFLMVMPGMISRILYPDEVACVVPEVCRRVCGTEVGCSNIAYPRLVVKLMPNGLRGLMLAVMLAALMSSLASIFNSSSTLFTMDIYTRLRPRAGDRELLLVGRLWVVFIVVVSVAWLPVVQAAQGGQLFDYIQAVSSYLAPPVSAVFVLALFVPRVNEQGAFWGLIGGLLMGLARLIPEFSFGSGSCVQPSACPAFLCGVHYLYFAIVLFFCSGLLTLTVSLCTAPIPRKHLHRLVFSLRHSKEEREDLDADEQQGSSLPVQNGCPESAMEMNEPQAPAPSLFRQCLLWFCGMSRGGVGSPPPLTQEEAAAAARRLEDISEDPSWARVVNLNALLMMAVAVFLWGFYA
T1 sequence (Q13113 1-114 partner): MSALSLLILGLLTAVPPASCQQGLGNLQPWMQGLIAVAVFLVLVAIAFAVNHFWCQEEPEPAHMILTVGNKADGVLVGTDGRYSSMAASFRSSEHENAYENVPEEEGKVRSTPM
Kind of assay: cryo-EM structure of the complex at […] Å ([…] AMG). In kind it is binding.

Assay [2] has as its target T2, hSGLT1 (Homo sapiens, UniProt P13866).
T2 construct: gene SLC5A1; hSGLT1GFP-MAP17nb (three-joint-tethering construct), in lipid nanodisc; with MAP17
T2 sequence (P13866 1-664): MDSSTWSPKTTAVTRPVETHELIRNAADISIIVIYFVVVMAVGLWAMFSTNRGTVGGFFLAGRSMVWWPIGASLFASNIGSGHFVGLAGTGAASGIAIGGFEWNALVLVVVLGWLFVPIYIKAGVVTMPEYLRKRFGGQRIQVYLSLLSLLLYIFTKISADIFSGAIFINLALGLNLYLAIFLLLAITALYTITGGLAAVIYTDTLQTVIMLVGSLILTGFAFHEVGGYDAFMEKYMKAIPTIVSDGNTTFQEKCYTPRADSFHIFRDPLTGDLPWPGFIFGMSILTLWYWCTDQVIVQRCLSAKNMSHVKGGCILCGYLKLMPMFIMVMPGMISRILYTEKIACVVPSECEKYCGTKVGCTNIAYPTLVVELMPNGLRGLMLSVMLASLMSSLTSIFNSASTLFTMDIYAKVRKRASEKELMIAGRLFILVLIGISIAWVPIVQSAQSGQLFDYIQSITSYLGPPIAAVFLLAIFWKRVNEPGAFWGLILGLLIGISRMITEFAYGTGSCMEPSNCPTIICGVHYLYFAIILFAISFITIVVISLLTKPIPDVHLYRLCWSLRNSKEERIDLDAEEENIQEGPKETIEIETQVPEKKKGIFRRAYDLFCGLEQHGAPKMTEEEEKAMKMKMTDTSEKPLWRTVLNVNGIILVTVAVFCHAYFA
T2 sequence (Q13113 1-114 partner): T1 sequence (Q13113 1-114 partner)
Kind of assay: cryo-EM structure of the complex at […] Å; IC50 from inhibition of […]-NBD-glucose uptake in cells. It is filed as cell-based.

As for `CO[C@H]1O[C@H](CO)C(O)[C@H](O)[C@H]1O` (stereo in doubt) [AMG, methyl alpha-D-galactopyranoside], the “cryo-EM structure of the complex at 3.33 Å (100 mM AMG)” value in assay [1] is listed as “We observed that AMG is bound in an occluded substrate-binding site”. With `OC[C@H]1OC(O)[C@H](O)[C@@H](O)[C@@H]1F` (stereo partly drawn) [4D4FDG, 4-deoxy-4-fluoro-D-glucose], in assay [2], the IC50 is ~70 µM.

For orientation: IC50 means the concentration that gives 50% inhibition. Low readings indicate inhibition by little substance, high ones a need for much substance.
